The text below walks through data of patent US20230265151A1, “GIP/GLP1 CO-AGONIST COMPOUNDS” (priority 2020, published 2023).

Where two headings read alike, the source gives them in different places.

For assay [1], the target named is T1, human GLP-1 receptor (hGLP-1R) (Homo sapiens, UniProt P43220).
T1 construct: expressed in transfected cells; crude membranes
The assay can be described thus: [125I]-GLP-1 binding, SPA with membranes of HEK293 cells expressing hGLP-1R.

For another assay, the target named is T2, hGIPR (Homo sapiens, UniProt P48546).
T2 construct: expressed in transfected cells
T2 sequence (P48546 22-466): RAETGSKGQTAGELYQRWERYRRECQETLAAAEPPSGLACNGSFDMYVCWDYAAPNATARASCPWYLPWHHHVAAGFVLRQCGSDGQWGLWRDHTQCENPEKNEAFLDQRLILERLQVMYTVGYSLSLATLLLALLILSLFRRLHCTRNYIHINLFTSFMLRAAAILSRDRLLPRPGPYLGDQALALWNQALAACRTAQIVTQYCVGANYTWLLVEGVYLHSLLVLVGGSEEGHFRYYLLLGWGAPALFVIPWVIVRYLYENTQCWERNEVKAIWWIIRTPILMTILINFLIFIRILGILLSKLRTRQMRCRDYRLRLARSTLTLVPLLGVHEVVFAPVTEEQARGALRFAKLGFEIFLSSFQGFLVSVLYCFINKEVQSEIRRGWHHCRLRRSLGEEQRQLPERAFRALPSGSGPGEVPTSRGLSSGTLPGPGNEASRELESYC
The assay can be described thus: Functional cAMP formation (HTRF) in HEK-293 clonal cells expressing hGIPR, 0.1% bovine casein, without or with 1.0% human serum albumin. Type of assay: cell-based. Particulars: for EC50: geometric mean. Put shortly: (§1)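 Cells were stimulated with peptide for 30 min at 37° C, then lysed in buffer carrying cAMP-d2 and anti-cAMP Eu3+-cryptate for a competitive HTRF read after at least 60 min at room temperature. The 665/620 nm ratio was converted to nM cAMP against a standard curve.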
On the technique in general: Changes in cAMP serve as a functional read-out for many G protein-coupled receptors.

For another assay, the target named is T3, hGCGR (Homo sapiens, UniProt P47871).
T3 construct: expressed in transfected cells
T3 sequence (P47871 26-477): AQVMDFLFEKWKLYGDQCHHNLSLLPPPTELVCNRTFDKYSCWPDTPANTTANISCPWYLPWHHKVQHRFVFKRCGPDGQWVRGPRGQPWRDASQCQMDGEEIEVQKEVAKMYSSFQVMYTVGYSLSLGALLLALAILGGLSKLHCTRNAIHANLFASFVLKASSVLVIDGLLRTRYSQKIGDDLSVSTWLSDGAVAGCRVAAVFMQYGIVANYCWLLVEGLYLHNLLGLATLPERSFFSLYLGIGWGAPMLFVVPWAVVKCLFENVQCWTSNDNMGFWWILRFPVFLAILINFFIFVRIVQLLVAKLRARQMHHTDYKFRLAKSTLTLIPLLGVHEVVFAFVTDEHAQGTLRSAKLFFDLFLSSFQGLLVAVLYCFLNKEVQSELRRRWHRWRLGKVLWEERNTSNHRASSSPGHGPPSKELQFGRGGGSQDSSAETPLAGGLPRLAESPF
In words: Functional cAMP formation (HTRF) in HEK-293 clonal cells expressing hGCGR, 0.1% bovine casein, without or with 1.0% human serum albumin. It counts as cell-based. Put shortly:
as §1

Another assay addresses hGLP-1R (Homo sapiens, UniProt P43220). The assay can be described thus: Functional cAMP formation (HTRF) in HEK-293 clonal cells expressing hGLP-1R, 0.1% bovine casein, without or with 1.0% human serum albumin. It counts as cell-based. Further details: expressed in transfected cells. Particulars: for Emax: percent of maximal response to GLP-1(7-36)NH2; for EC50: geometric mean. In short, it runs like this: as §1

[2] abbreviates: HEK293, read-out: hGIPR Emax, % ± SEM, cAMP, 37° C., 0.1% bovine casein and 1.0% human serum albumin, percent of maximal response to GIP(1-42)NH2.
[3] abbreviates: hGIPR EC50, nM (SEM, n), cAMP, 37° C., 0.1% bovine casein (no human serum albumin).
Setting [4] is: hGCGR EC50, nM (SEM, n), cAMP, 37° C., 0.1% bovine casein (no human serum albumin), geometric mean.
The mark [5] stands for this setting: hGCGR EC50, nM (SEM, n), cAMP, 37° C., 0.1% bovine casein and 1.0% human serum albumin, geometric mean (SEM, n).
Where [6] appears, read: HEK293, read-out: hGLP-1R Emax, % ± SEM, cAMP, 37° C., 0.1% bovine casein, arithmetic mean.
Setting [7] is: hGLP-1R EC50, nM (SEM, n), cAMP, 37° C., 0.1% bovine casein (no human serum albumin).
[8] abbreviates: human GLP-1R, geometric mean (SEM, n), read-out: Binding Affinity Ki, nM (SEM, n) hGLP-1R.

T1 sequence (P43220 24-463): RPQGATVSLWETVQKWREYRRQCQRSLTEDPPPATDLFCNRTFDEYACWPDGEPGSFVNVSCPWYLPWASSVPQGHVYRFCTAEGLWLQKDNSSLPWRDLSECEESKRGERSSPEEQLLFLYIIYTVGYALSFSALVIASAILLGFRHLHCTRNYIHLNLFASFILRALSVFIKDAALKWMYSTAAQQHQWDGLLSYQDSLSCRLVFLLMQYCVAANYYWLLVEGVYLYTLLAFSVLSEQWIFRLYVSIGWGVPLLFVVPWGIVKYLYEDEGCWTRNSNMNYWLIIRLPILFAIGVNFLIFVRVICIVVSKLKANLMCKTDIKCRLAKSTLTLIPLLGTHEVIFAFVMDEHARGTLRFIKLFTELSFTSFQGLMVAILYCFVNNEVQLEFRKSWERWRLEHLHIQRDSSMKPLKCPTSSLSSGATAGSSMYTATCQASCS
Chain of hGLP-1R (P43220 24-463): as above

With `CC[C@H](C)[C@H](NC(=O)[C@H](CC(C)C)NC(=O)[C@](C)(Cc1ccc(O)cc1)NC(=O)[C@H](CCCCNC(=O)COCCOCCNC(=O)CC[C@H](NC(=O)COCCOCCNC(=O)CC[C@H](NC(=O)CCCCCCCCCOc1ccc(C(=O)O)cc1)C(=O)O)C(=O)O)NC(=O)[C@@H](NC(=O)[C@H](Cc1ccccc1)NC(=O)[C@H](CCCN)NC(=O)C(C)(C)NC(=O)[C@H](CCC(N)=O)NC(=O)[C@H](C)NC(=O)[C@H](CCC(N)=O)NC(=O)[C@H](CCCN)NC(=O)[C@H](CC(=O)O)NC(=O)[C@H](CC(C)C)NC(=O)[C@](C)(CC(C)C)NC(=O)[C@@H](NC(=O)C(C)(C)NC(=O)[C@H](Cc1ccncc1)NC(=O)[C@H](CC(=O)O)NC(=O)[C@H](CO)NC(=O)[C@@H](NC(=O)[C@](C)(Cc1ccccc1F)NC(=O)[C@@H](NC(=O)CNC(=O)[C@H](CCC(=O)O)NC(=O)C(C)(C)NC(=O)[C@@H](N)Cc1ccc(O)cc1)[C@@H](C)O)[C@@H](C)O)[C@@H](C)CC)[C@@H](C)CC)C(=O)N[C@@H](CCCCNC(=O)COCCOCCNC(=O)CC[C@H](NC(=O)COCCOCCNC(=O)CC[C@H](NC(=O)CCCCCCCCCOc1ccc(C(=O)O)cc1)C(=O)O)C(=O)O)C(=O)NCC(=O)NCC(=O)N1CCC[C@H]1C(=O)N[C@@H](CO)C(=O)N[C@@H](CO)C(=O)NCC(=O)N[C@@H](C)C(=O)N1CCC[C@H]1C(=O)N1CCC[C@H]1C(=O)N1CCC[C@H]1C(=O)N[C@@H](CO)C(N)=O` [Example 485], in assay [1], the Ki is 0.3 nM. Moreover, the Emax at hGIPR (setting [2]) is 93.8%; on hGLP-1R (setting [6]), 115%. Moreover, the EC50 was 0.0113 nM at hGIPR (setting [3]), above 10100 nM on hGCGR (setting [4]), above 9950 nM at hGCGR (setting [5]) and 0.153 nM at hGLP-1R (setting [7]).
On to `CCCCCCCCCCCC(=O)N[C@@H](CCC(=O)NCCOCCOCC(=O)NCCOCCOCC(=O)NCCOCCOCC(=O)NCCCC[C@H](NC(=O)[C@H](CCCN)NC(=O)[C@H](CC(=O)O)NC(=O)[C@H](CC(C)C)NC(=O)[C@](C)(CC(C)C)NC(=O)[C@@H](NC(=O)C(C)(C)NC(=O)[C@H](CCCCNC(=O)COCCOCCNC(=O)COCCOCCNC(=O)COCCOCCNC(=O)CC[C@H](NC(=O)CCCCCCCCCCC)C(=O)O)NC(=O)[C@H](CC(=O)O)NC(=O)[C@H](CO)NC(=O)[C@@H](NC(=O)[C@](C)(Cc1ccccc1F)NC(=O)[C@@H](NC(=O)CNC(=O)[C@H](CCC(=O)O)NC(=O)C(C)(C)NC(=O)[C@@H](N)Cc1ccc(O)cc1)[C@@H](C)O)[C@@H](C)O)[C@@H](C)CC)C(=O)N[C@@H](C)C(=O)N[C@@H](CCC(N)=O)C(=O)NC(C)(C)C(=O)N[C@@H](CCC(=O)O)C(=O)N[C@@](C)(Cc1ccccc1)C(=O)N[C@H](C(=O)N[C@H](CCC(=O)O)C(=O)N[C@@](C)(Cc1ccc(O)cc1)C(=O)N[C@@H](CC(C)C)C(=O)N[C@H](C(=O)N[C@@H](CCC(=O)O)C(=O)NCC(=O)NCC(=O)N1CCC[C@H]1C(=O)N[C@@H](CO)C(=O)N[C@@H](CO)C(=O)NCC(=O)N[C@@H](C)C(=O)N1CCC[C@H]1C(=O)N1CCC[C@H]1C(=O)N1CCC[C@H]1C(=O)N[C@@H](CO)C(N)=O)[C@@H](C)CC)[C@@H](C)CC)C(=O)O` [Example 436], for which the Ki in assay [1] (setting [8]) turned out to be 0.412 nM. Besides, the maximal effect (Emax) came to 96% at hGIPR (HEK293, cAMP, 37° C., 0.1% bovine casein and 1.0% human serum albumin, percent of maximal response to GIP(1-42)NH2, read-out: hGIPR Emax, % ± SEM); 100% on hGLP-1R (HEK293, cAMP, 37° C., 0.1% bovine casein and 1.0% human serum albumin, read-out: hGLP-1R Emax, % ± SEM); 98.9% at hGLP-1R (HEK293, cAMP, 37° C., 0.1% bovine casein, arithmetic mean, read-out: hGLP-1R Emax, % ± SEM). In addition, the half-maximal effective concentration (EC50) at hGIPR (cAMP, 37° C., 0.1% bovine casein (no human serum albumin), read-out: hGIPR EC50, nM (SEM, n)) was 0.00714 nM; on hGCGR (cAMP, 37° C., 0.1% bovine casein (no human serum albumin), geometric mean, read-out: hGCGR EC50, nM (SEM, n)), above 9950 nM; on hGCGR (cAMP, 37° C., 0.1% bovine casein and 1.0% human serum albumin, geometric mean (SEM, n), read-out: hGCGR EC50, nM (SEM, n)), above 9950 nM; at hGLP-1R (cAMP, 37° C., 0.1% bovine casein (no human serum albumin), read-out: hGLP-1R EC50, nM (SEM, n)), 0.102 nM.
Turning to `CCCCCCCCCCCC(=O)N[C@@H](CCC(=O)NCCOCCOCC(=O)NCCCC[C@H](NC(=O)CNC(=O)CNC(=O)[C@H](CCC(=O)O)NC(=O)[C@@H](NC(=O)[C@H](CC(C)C)NC(=O)[C@](C)(Cc1ccc(O)cc1)NC(=O)[C@@H](CCC(=O)O)NC(=O)[C@@H](NC(=O)[C@H](Cc1ccccc1)NC(=O)[C@H](CCC(=O)O)NC(=O)C(C)(C)NC(=O)[C@H](CCC(N)=O)NC(=O)[C@H](C)NC(=O)[C@H](CCCCNC(=O)COCCOCCNC(=O)CC[C@H](NC(=O)CCCCCCCCCCC)C(=O)O)NC(=O)[C@H](CCCN)NC(=O)[C@H](CC(=O)O)NC(=O)[C@H](CC(C)C)NC(=O)[C@](C)(CC(C)C)NC(=O)[C@@H](NC(=O)[C@H](CO)NC(=O)[C@H](Cc1ccncc1)NC(=O)[C@H](CC(=O)O)NC(=O)[C@H](CO)NC(=O)[C@@H](NC(=O)[C@](C)(Cc1ccccc1F)NC(=O)[C@@H](NC(=O)CNC(=O)[C@H](CCC(=O)O)NC(=O)C(C)(C)NC(=O)[C@@H](N)Cc1ccc(O)cc1)[C@@H](C)O)[C@@H](C)O)[C@@H](C)CC)[C@@H](C)CC)[C@@H](C)CC)C(=O)N[C@@H](CO)C(=O)N[C@@H](CO)C(=O)NCC(=O)N[C@@H](C)C(=O)N1CCC[C@H]1C(=O)N1CCC[C@H]1C(=O)N1CCC[C@H]1C(=O)N[C@@H](CO)C(N)=O)C(=O)O` [Example 14], the Ki in assay [1] (setting [8]) worked out at 0.286 nM. Moreover, the half-maximal effective concentration (EC50) is 0.769 nM at hGIPR (0.1% bovine casein and 1.0% human serum albumin, 37° C., read-out: hGIPR EC50, nM (SEM, n)); above 9950 nM on hGCGR (0.1% bovine casein and 1.0% human serum albumin, 37° C., geometric mean, read-out: hGCGR EC50, nM (SEM, n)); above 9950 nM at hGCGR (cAMP, incubated at 37° C., 0.1% bovine casein (no human serum albumin), geometric mean, read-out: hGCGR EC50, nM (SEM, n)); 9.19 nM on hGLP-1R (0.1% bovine casein and 1.0% human serum albumin, 37° C., read-out: hGLP-1R EC50, nM (SEM, n)). Besides, the Emax on hGIPR (HEK293, 0.1% bovine casein and 1.0% human serum albumin, 37° C., percent of maximal response to GIP(1-42)NH2, read-out: hGIPR Emax, % ± SEM) amounted to 89.5 ± 1.02%; at hGIPR (HEK293, percent of maximal response to GIP(1-42)NH2, 37° C., 0.1% bovine casein, arithmetic mean, read-out: hGIPR Emax, % ± SEM), 95 ± 2.32%.
For `CC[C@H](C)[C@H](NC(=O)[C@H](CC(C)C)NC(=O)[C@](C)(Cc1ccc(O)cc1)NC(=O)[C@H](CCCCNC(=O)COCCOCCNC(=O)CC[C@H](NC(=O)CC[C@H](NC(=O)CC[C@H](NC(=O)CCCCCCCCCOc1ccc(C(=O)O)cc1)C(=O)O)C(=O)O)C(=O)O)NC(=O)[C@@H](NC(=O)[C@H](Cc1ccccc1)NC(=O)[C@H](CCCN)NC(=O)C(C)(C)NC(=O)[C@H](CCC(N)=O)NC(=O)[C@H](C)NC(=O)[C@H](CCC(N)=O)NC(=O)[C@H](CCCN)NC(=O)[C@H](CC(=O)O)NC(=O)[C@H](CC(C)C)NC(=O)[C@](C)(CC(C)C)NC(=O)[C@@H](NC(=O)C(C)(C)NC(=O)[C@H](Cc1ccncc1)NC(=O)[C@H](CC(=O)O)NC(=O)[C@H](CO)NC(=O)[C@@H](NC(=O)[C@](C)(Cc1ccccc1F)NC(=O)[C@@H](NC(=O)CNC(=O)[C@H](CCC(=O)O)NC(=O)C(C)(C)NC(=O)[C@@H](N)Cc1ccc(O)cc1)[C@@H](C)O)[C@@H](C)O)[C@@H](C)CC)[C@@H](C)CC)C(=O)N[C@@H](CCCCNC(=O)COCCOCCNC(=O)CC[C@H](NC(=O)CC[C@H](NC(=O)CC[C@H](NC(=O)CCCCCCCCCOc1ccc(C(=O)O)cc1)C(=O)O)C(=O)O)C(=O)O)C(=O)NCC(=O)NCC(=O)N1CCC[C@H]1C(=O)N[C@@H](CO)C(=O)N[C@@H](CO)C(=O)NCC(=O)N[C@@H](C)C(=O)N1CCC[C@H]1C(=O)N1CCC[C@H]1C(=O)N1CCC[C@H]1C(=O)N[C@@H](CO)C(N)=O` [Example 487], in assay [1], the affinity, expressed as Ki, was 0.217 nM. The Emax at hGIPR (setting [2]) was 89.1%; on hGLP-1R (setting [6]), 116%. Moreover, the concentration for a half-maximal effect (EC50) is 0.0161 nM on hGIPR (setting [3]), above 9950 nM on hGCGR (setting [4]), above 9950 nM on hGCGR (setting [5]) and 0.199 nM on hGLP-1R (setting [7]).

What is called Ki is a dissociation constant, usually derived from enzyme kinetics or from competition with a known ligand. One may read the Emax as the maximal effect, on the per cent scale that the assay sets. As a reminder, the EC50 is the concentration needed to bring the measured effect to its halfway point.
